Reference: patent US7285682B2, “Terphenyl guanidines as β-secretase inhibitors” (Wyeth, priority 2005, dated 2007)

How the values were obtained:
human BACE1 = human BACE1 (Homo sapiens, UniProt P56817); assay: Fluorescent kinetic assay (BACE-1, FRET peptide substrate WABC-6); type: biochemical; settings: 10 nM enzyme, 25 μM substrate WABC-6, 50 mM Na-Acetate pH 4.5, room temperature
Procedure: Evaluation of BACE-1 Binding Affinity of Test Compounds
1. Fluorescent Kinetic Assays • Final Assay Conditions: 10 nM human BACE1 (or 10 nM Murine BACE1, 1.5 nM human BACE2), 25 μM substrate (WABC-6, MW 1549.6, from AnaSpec), Buffer: 50 mM Na-Acetate, pH 4.5, 0.05% CHAPS, 25% PBS, room temperature. Na-Acetate was from Aldrich, Cat.# 24,124-5, CHAPS was from Research Organics, Cat. # 1304C 1×, PBS was from Mediatech (Cellgro), Cat# 21-031-CV, peptide substrate AbzSEVNLDAEFRDpa was from AnaSpec, Peptide Name: WABC-6 • Determination of stock substrate (AbzSEVNLDAEFRDpa) concentration: ˜25 mM stock solution is made in DMSO using the peptide weight and MW, and diluted to ˜25 μM (1:1000) in 1×PBS. Concentration is determined by absorbance at 354 nm using an extinction coefficient ε of 18172 M^−1 cm^−1, the concentration of stock substrate is corrected, and the substrate stock stored in small aliquots in −80° C. [Substrate Stock]=ABS^354 nm*10^6/18172 ([…]) The extinction coefficient ε^354 nm was adapted from TACE peptide substrate, which had the same quencher-fluorophore pair. • Determination of Stock Enzyme Concentration: the stock concentration of each enzyme is determined by absorbance at 280 nm using ε of 64150 M^−1 cm^−1 for hBACE1 and MuBACE1, 62870 M^−1 cm^−1 for hBACE2 in 6 M Guanidinium Hydrochloride (from Research Organics, Cat. # 5134G-2), pH ˜6. The extinction Coefficient ε^280 nm for each enzyme was calculated based on known amino acid composition and published extinction coefficients for Trp ([…]) and Tyr ([…]) residues (Anal. Biochem. 182, 319-326). • Dilution and mixing steps: total reaction volume: 100 μL
2× inhibitor dilutions in buffer A (66.7 mM Na-Acetate, pH 4.5, 0.0667% CHAPS) were prepared,
4× enzyme dilution in buffer A (66.7 mM Na-Acetate, pH 4.5, 0.0667% CHAPS) were prepared,
100 μM substrate dilution in 1×PBS was prepared, and […]

Chain of human BACE1 (P56817 46-501): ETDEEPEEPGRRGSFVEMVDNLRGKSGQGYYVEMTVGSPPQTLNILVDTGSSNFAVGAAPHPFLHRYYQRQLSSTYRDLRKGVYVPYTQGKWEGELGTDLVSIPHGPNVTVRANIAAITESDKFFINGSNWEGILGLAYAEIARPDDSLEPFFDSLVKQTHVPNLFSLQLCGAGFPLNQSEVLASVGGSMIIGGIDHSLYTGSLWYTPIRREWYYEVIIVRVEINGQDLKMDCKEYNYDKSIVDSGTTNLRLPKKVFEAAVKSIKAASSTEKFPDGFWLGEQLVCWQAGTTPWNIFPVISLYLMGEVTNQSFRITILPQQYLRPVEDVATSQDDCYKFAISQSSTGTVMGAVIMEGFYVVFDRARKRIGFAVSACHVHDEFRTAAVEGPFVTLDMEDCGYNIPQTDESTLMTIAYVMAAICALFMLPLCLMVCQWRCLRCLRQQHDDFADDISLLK

IC50 (human BACE1) | melting point | Structure (SMILES)
13.9 µM | 171 to 174 °C | CC(C)(C)c1ccc(-c2cccc(-c3ccccc3)c2CC(=O)NC(=N)N)cc1 [Example 3, N-[(4-tert-Butyl-1,1′:3′,1″-terphenyl-2′-yl)acetyl]guanidine]
29.6 µM | 36.8 to 36.9 °C | N=C(N)NC(=O)Cc1c(-c2ccccc2)cccc1-c1ccc2ccccc2c1 [Example 2, N-{[3-(2-Naphthyl)-1,1′-biphenyl-2-yl]acetyl}guanidine]
15 µM | 64 to 67 °C | N=C(N)NC(=O)Cc1c(-c2ccccc2)cccc1-c1ccccc1.O=C(O)C(F)(F)F [Example 1, N-(1,1′:3′,1″-Terphenyl-2′-ylacetyl)guanidine TFA salt]
5.95 µM |  | NC(N)=NC(=O)Cc1c(-c2ccccc2)cccc1-c1ccc(Oc2ccccc2)cc1 [Example 4, N″-[(4-Phenoxy-1,1′:3′,1″-terphenyl-2′-yl)acetyl]guanidine]
